# Laboratory results reported in patent publication US20250360235A1, “RADI[…] AND METHOD FOR RADIOLABELLING” (Telix Innovations SA, priority 2024, published 2025).
# Test: pH of [68Ga]PSMA-11 solution (acceptance 4.0-5.0)
# Format: physicochemical
# Settings: for pH of the gallium-68 labelled PSMA-11 solution: immediately after the radiolabelling procedure
# Description: (§1) 100 μl of the ascorbic acid solution (equivalent to 25 mg ascorbic acid) was taken from vial 3, and was filtered through a 5 μm filter needle. The sodium ascorbate solution was subsequently added to vail 2, and mixed thoroughly. The obtained content of vial 2 was added to vial 1, and again mixed thoroughly. To this obtained vail 1, the eluate, comprising the gallium-68, was added to obtain a gallium-68 labelled PSMA-11 solution. Optionally, a 2.5 ml 0.9% sodium chloride solution may be added to increase the volume and/or to amend the osmolality to be under 1000 mOsm/kg.
# The pH of the gallium-68 labelled PSMA-11 solution was 4.5 immediately after the radiolabelling procedure and was unchanged after 4 hours.
# as §1, with “a Gallium-68” for “a gallium-68”, “a” for “a 2.5 ml 0.9%”, “volume of the obtained Gallium-68 labelled PSMA-11 solution” for “volume”, “mOsm/kg. The pH of the gallium-68 labelled PSMA-11 solution was 4.5 immediately after the radiolabelling procedure and was unchanged after 4 hours.” for “mOsm/kg.”
# as §1, with “a Gallium-68” for “a gallium-68”, “a” for “a 2.5 ml 0.9%”, “volume of the obtained Gallium-68 labelled PSMA-11 solution” for “volume”, “mOsm/kg. The pH of the gallium-68 labelled PSMA-11 solution was 4.5 immediately after the radiolabelling procedure and was unchanged after 6 hours.” for “mOsm/kg.”
# Table 1 to Table 5 show the results of various radiolabelling experiments on radiochemical purity and the chelation yield. The radiolabelling experiments in the tables are carried out as described in: • Example 1 for when the gallium-68 source is GE Liquid target generator and EZAG GalliaPharm generator; • Example 2 for when the gallium-68 source is IRE Galli Eo generator; • Example 3 for when the gallium-68 source is GE solid target generator;
# However, the experiments were carried out with the amount of ascorbic acid as indicated in the Tables 1 to 5, and the activity as indicated in the Tables 1 to 5. Radiochemical purities were measured at various times (T0, T1, T4, T6) after the radiolabelled experiments have been conducted.
# The kits of Example 1, Example 2 or Example 3, with amounts of ascorbic acid as set out in Table 7 were used in the experiments for the ascorbic acid bracketing matrix. Three strengths of [^68Ga]Ga-PSMA-11 will be tested, i.e. 50 mCi/ml, 7 mCi/ml and 1 mCi/ml. Radiochemical purity was determined at different time points (TO, T1, T4 or T6), as set out in Table 7.
structure (smiles),measurement,setting,value
"O=C([O-])CN(CCN(CC(=O)[O-])Cc1cc(CCC(=O)NCCCCCC(=O)NCCCC[C@H](NC(=O)N[C@@H](CCC(=O)O)C(=O)O)C(=O)O)ccc1[O-])Cc1cc(CCC(=O)O)ccc1[O-].[68Ga+3].[OH3+] [[^68Ga]PSMA-11, gallium-68 radiolabelled Glu-urea-Lys-HBED-CC (gozetotide or PSMA-11)]",pH,"1 mg ascorbic acid, 58.7-71.1 mCi, 7.47-8.99 mCi/mL, GE Liquid target, n=3, T0",C (C = conforms to specifications)
same,pH,"1 mg ascorbic acid, 58.7-71.1 mCi, 7.47-8.99 mCi/mL, GE Liquid target, n=3, T4 (4 h)",C (C = conforms to specifications)
same,pH,"2.5 mg ascorbic acid, 49.9-76.9 mCi, 6.31-9.72 mCi/mL, GE Liquid target, n=3, T0",C (C = conforms to specifications)
same,pH,"2.5 mg ascorbic acid, 49.9-76.9 mCi, 6.31-9.72 mCi/mL, GE Liquid target, n=3, T4 (4 h)",C (C = conforms to specifications)
same,pH,"5 mg ascorbic acid, 60-69.9 mCi, 7.61-8.81 mCi/mL, 3 × GE Liquid Target, 3 × EZAG GalliaPharm, n=6, T0",C (C = conforms to specifications)
same,pH,"5 mg ascorbic acid, 60-69.9 mCi, 7.61-8.81 mCi/mL, 3 × GE Liquid Target, 3 × EZAG GalliaPharm, n=6, T4 (4 h)",C (C = conforms to specifications)
same,pH,"10 mg ascorbic acid, 458-500 mCi, 43.4-47.3 mCi/mL, GE Solid Target, n=3, T0",C (C = conforms to specifications)
same,pH,"10 mg ascorbic acid, 458-500 mCi, 43.4-47.3 mCi/mL, GE Solid Target, n=3, T4 (4 h)",C (C = conforms to specifications)
same,pH,"10 mg ascorbic acid, 514-520 mCi, 49.0-66.1 mCi/mL, GE Solid Target, n=3, T0",C (C = conforms to specifications)
same,pH,"10 mg ascorbic acid, 514-520 mCi, 49.0-66.1 mCi/mL, GE Solid Target, n=3, T6 (6 h)",C (C = conforms to specifications)
same,pH,"15 mg ascorbic acid, 10.0-18.4 mCi, 0.95-1.77 mCi/mL, 1 × EZAG GalliaPharm, 2 × IRE Galli Eo, n=3, T0",C (C = conforms to specifications)
same,pH,"15 mg ascorbic acid, 10.0-18.4 mCi, 0.95-1.77 mCi/mL, 1 × EZAG GalliaPharm, 2 × IRE Galli Eo, n=3, T1 (1 h)",C (C = conforms to specifications)
same,pH,"15 mg ascorbic acid, 23.7-47.6 mCi, 2.26-4.53 mCi/mL, 1 × EZAG GalliaPharm, 2 × IRE Galli Eo, n=3, T0",C (C = conforms to specifications)
same,pH,"15 mg ascorbic acid, 23.7-47.6 mCi, 2.26-4.53 mCi/mL, 1 × EZAG GalliaPharm, 2 × IRE Galli Eo, n=3, T4 (4 h)",C (C = conforms to specifications)
same,pH,"20 mg ascorbic acid, 514-544 mCi, 48.3-51.9 mCi/mL, GE Solid Target, n=2, T0",C (C = conforms to specifications)
same,pH,"20 mg ascorbic acid, 514-544 mCi, 48.3-51.9 mCi/mL, GE Solid Target, n=2, T6 (6 h)",C (C = conforms to specifications)
same,pH,"25 mg ascorbic acid, 10.2 mCi, 0.97 mCi/mL, IRE Galli Eo, n=1, T0",C (C = all results conform to specifications)
same,pH,"25 mg ascorbic acid, 10.2 mCi, 0.97 mCi/mL, IRE Galli Eo, n=1, T1 (1 h)",C (C = all results conform to specifications)
same,pH,"25 mg ascorbic acid, 19.5-20.0 mCi, 1.85-1.90 mCi/mL, EZAG GalliaPharm, n=2, T0",C (C = all results conform to specifications)
same,pH,"25 mg ascorbic acid, 19.5-20.0 mCi, 1.85-1.90 mCi/mL, EZAG GalliaPharm, n=2, T1 (1 h)",C (C = all results conform to specifications)
same,pH,"25 mg ascorbic acid, 23.3-24 mCi, 2.22-2.28 mCi/mL, IRE Galli Eo, n=2, T0",C (C = all results conform to specifications)
same,pH,"25 mg ascorbic acid, 23.3-24 mCi, 2.22-2.28 mCi/mL, IRE Galli Eo, n=2, T4 (4 h)",C (C = all results conform to specifications)
same,pH,"25 mg ascorbic acid, 46.0-46.1 mCi, 4.38-4.39 mCi/mL, EZAG GalliaPharm, n=2, T0",C (C = all results conform to specifications)
same,pH,"25 mg ascorbic acid, 46.0-46.1 mCi, 4.38-4.39 mCi/mL, EZAG GalliaPharm, n=2, T4 (4 h)",C (C = all results conform to specifications)
same,pH,"50 mg ascorbic acid, 560 mCi, 71.1 mCi/mL, GE Solid Target, n=1, T0",C (C = conforms to specifications)
same,pH,"50 mg ascorbic acid, 560 mCi, 71.1 mCi/mL, GE Solid Target, n=1, T6 (6 h)",C (C = conforms to specifications)
same,pH of the gallium-68 labelled PSMA-11 solution,"Example 1 kit (25 mg ascorbic acid; EZAG GalliaPharm or GE Liquid, 60-70 mCi)",4.5
same,"pH of the gallium-68 labelled PSMA-11 solution, change","Example 1 kit, after 4 hours",unchanged
same,pH of the gallium-68 labelled PSMA-11 solution,"Example 2 kit (25 mg ascorbic acid; IRE Galli Eo, 60-70 mCi)",4.5
same,"pH of the gallium-68 labelled PSMA-11 solution, change","Example 2 kit, after 4 hours",unchanged
same,pH of the gallium-68 labelled PSMA-11 solution,"Example 3 kit (25 mg ascorbic acid; solid target, 350-600 mCi)",4.5
same,"pH of the gallium-68 labelled PSMA-11 solution, change","Example 3 kit, after 6 hours",unchanged
same,pH,"bracketing ~1 mCi/mL, 18.75 mg ascorbic acid, 8.9-11.5 mCi, 0.85-1.09 mCi/mL, IRE Galli Eo, n=2, T0",C (C = Conforms to specifications)
same,pH,"bracketing ~1 mCi/mL, 18.75 mg ascorbic acid, 8.9-11.5 mCi, 0.85-1.09 mCi/mL, IRE Galli Eo, n=2, T1 (1 h)",C (C = Conforms to specifications)
same,pH,"bracketing ~1 mCi/mL, 25 mg ascorbic acid, 8.8-12.7 mCi, 0.84-1.21 mCi/mL, 2 × IRE Galli Eo, n=2, T0",C (C = Conforms to specifications)
same,pH,"bracketing ~1 mCi/mL, 25 mg ascorbic acid, 8.8-12.7 mCi, 0.84-1.21 mCi/mL, 2 × IRE Galli Eo, n=2, T1 (1 h)",C (C = Conforms to specifications)
same,pH,"bracketing ~1 mCi/mL, 31.25 mg ascorbic acid, 15.2-26.9 mCi, 1.44-2.54 mCi/mL, EZAG GalliaPharm, n=2, T0",C (C = Conforms to specifications)
same,pH,"bracketing ~1 mCi/mL, 31.25 mg ascorbic acid, 15.2-26.9 mCi, 1.44-2.54 mCi/mL, EZAG GalliaPharm, n=2, T1 (1 h)",C (C = Conforms to specifications)
same,pH,"bracketing ~7 mCi/mL, 18.75 mg ascorbic acid, 51.0-58.0 mCi, 5.55-6.5 mCi/mL, IRE Galli Eo, n=2, T0",C (C = Conforms to specifications)
same,pH,"bracketing ~7 mCi/mL, 18.75 mg ascorbic acid, 51.0-58.0 mCi, 5.55-6.5 mCi/mL, IRE Galli Eo, n=2, T4 (4 h)",C (C = Conforms to specifications)
same,pH,"bracketing ~7 mCi/mL, 25 mg ascorbic acid, 51.6-74.4 mCi, 4.56-6.92 mCi/mL, 3 × GE Liquid Target, 3 × IRE Galli Eo, 3 × EZAG GalliaPharm, n=9, T0",C (C = Conforms to specifications)
same,pH,"bracketing ~7 mCi/mL, 25 mg ascorbic acid, 51.6-74.4 mCi, 4.56-6.92 mCi/mL, 3 × GE Liquid Target, 3 × IRE Galli Eo, 3 × EZAG GalliaPharm, n=9, T4 (4 h)",C (C = Conforms to specifications)
same,pH,"bracketing ~7 mCi/mL, 31.25 mg ascorbic acid, 61.5-62.0 mCi, 5.85-5.88 mCi/mL, EZAG GalliaPharm, n=2, T0",C (C = Conforms to specifications)
same,pH,"bracketing ~7 mCi/mL, 31.25 mg ascorbic acid, 61.5-62.0 mCi, 5.85-5.88 mCi/mL, EZAG GalliaPharm, n=2, T4 (4 h)",C (C = Conforms to specifications)
same,pH,"bracketing ~50 mCi/mL, 20 mg ascorbic acid, 514-544 mCi, 48.3-51.9 mCi/mL, GE Solid Target, n=2, T0",C (C = Conforms to specifications)
same,pH,"bracketing ~50 mCi/mL, 20 mg ascorbic acid, 514-544 mCi, 48.3-51.9 mCi/mL, GE Solid Target, n=2, T6 (6 h)",C (C = Conforms to specifications)
same,pH,"bracketing ~50 mCi/mL, 25 mg ascorbic acid, 537-551 mCi, 50.2-51.6 mCi/mL, GE Solid Target, n=3, T0",C (C = Conforms to specifications)
same,pH,"bracketing ~50 mCi/mL, 25 mg ascorbic acid, 537-551 mCi, 50.2-51.6 mCi/mL, GE Solid Target, n=3, T6 (6 h)",C (C = Conforms to specifications)
same,pH,"bracketing ~50 mCi/mL, 31.25 mg ascorbic acid, 500-544 mCi, 48.1-51.7 mCi/mL, GE Solid Target, n=2, T0",C (C = Conforms to specifications)
same,pH,"bracketing ~50 mCi/mL, 31.25 mg ascorbic acid, 500-544 mCi, 48.1-51.7 mCi/mL, GE Solid Target, n=2, T6 (6 h)",C (C = Conforms to specifications)
same,pH,"control, 0 mg ascorbic acid, 70 mCi, GE Solid Target, n=1, T0",C (C = all results conform to specifications)
same,pH,"control, 0 mg ascorbic acid, 70 mCi, GE Solid Target, n=1, T4 (4 h)",C (C = all results conform to specifications)
same,pH,"validation batches, 25 mg ascorbic acid, 51.6-62.7 mCi, 4.56-5.88 mCi/mL, IRE Galli Eo, n=3, T0",C (C = all results conform to specifications)
same,pH,"validation batches, 25 mg ascorbic acid, 51.6-62.7 mCi, 4.56-5.88 mCi/mL, IRE Galli Eo, n=3, T4 (4 h)",C (C = all results conform to specifications)
same,pH,"validation batches, 25 mg ascorbic acid, 53.3-74.4 mCi, 5.03-6.92 mCi/mL, GE Liquid target, n=3, T0",C (C = all results conform to specifications)
same,pH,"validation batches, 25 mg ascorbic acid, 53.3-74.4 mCi, 5.03-6.92 mCi/mL, GE Liquid target, n=3, T4 (4 h)",C (C = all results conform to specifications)
same,pH,"validation batches, 25 mg ascorbic acid, 65.0-66.4 mCi, 5.74-6.15 mCi/mL, EZAG GalliaPharm, n=3, T0",C (C = all results conform to specifications)
same,pH,"validation batches, 25 mg ascorbic acid, 65.0-66.4 mCi, 5.74-6.15 mCi/mL, EZAG GalliaPharm, n=3, T4 (4 h)",C (C = all results conform to specifications)
same,pH,"validation batches, 25 mg ascorbic acid, 537-551 mCi, 50.2-51.6 mCi/mL, GE Solid Target, n=3, T0",C (C = all results conform to specifications)
same,pH,"validation batches, 25 mg ascorbic acid, 537-551 mCi, 50.2-51.6 mCi/mL, GE Solid Target, n=3, T6 (6 h)",C (C = all results conform to specifications)
same,pH,"validation batches, 25 mg ascorbic acid, 555-564 mCi, 51.1-52.7 mCi/mL, ARTMS Solid Target, n=3, T0",C (C = all results conform to specifications)
same,pH,"validation batches, 25 mg ascorbic acid, 555-564 mCi, 51.1-52.7 mCi/mL, ARTMS Solid Target, n=3, T6 (6 h)",C (C = all results conform to specifications)
